Data on 16 compounds can be found in patent publication US20260258036A1, “INHIBITORS OF HUMAN ALDOSTERONE SYNTHASE (CYP11B2)” («TARGET MEDICALS» LIMITED LIABILITY COMPANY, priority 2022, published 2026).

Broadly, the inhibition is the percentage by which the read-out fell short of the control.

The target of the first assay is T1, recombinant CYP11B2 (Homo sapiens, UniProt P19099).
T1 sequence (P19099 25-503): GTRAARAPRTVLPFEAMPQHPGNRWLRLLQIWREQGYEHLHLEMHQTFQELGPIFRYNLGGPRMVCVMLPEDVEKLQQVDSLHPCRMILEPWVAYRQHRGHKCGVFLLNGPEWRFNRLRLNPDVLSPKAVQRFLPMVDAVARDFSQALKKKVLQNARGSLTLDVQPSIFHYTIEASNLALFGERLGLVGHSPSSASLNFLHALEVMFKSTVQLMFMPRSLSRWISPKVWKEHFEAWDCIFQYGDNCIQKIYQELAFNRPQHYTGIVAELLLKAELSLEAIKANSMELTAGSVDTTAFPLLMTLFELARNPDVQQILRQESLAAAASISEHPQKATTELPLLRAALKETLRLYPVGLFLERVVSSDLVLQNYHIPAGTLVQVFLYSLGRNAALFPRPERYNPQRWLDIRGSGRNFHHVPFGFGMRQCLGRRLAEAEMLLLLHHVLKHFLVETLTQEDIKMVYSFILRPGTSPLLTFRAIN
The experiment in a line: Inhibition of CYP11B2 activity in a reconstructed enzyme system (HPLC with UV detector). Particulars: compounds 2_xx, 3_xx, 4_01; test compound final concentration ≤2 μM; corticosterone substrate; 30 minutes at 37° C. Type of assay: biochemical. How it is done: The authors of the present invention investigated the activity of the compounds according to the invention as inhibitors of CYP11 B2 when analyzed in a reconstructed system containing 0.5 μm recombinant CYP1 1B2, 0.3 μm human adrenodoxin reductase, 2 μm human adrenodoxin, 100 μm corticosterone as a control reaction to detect the formation of a product with using an HPLC system with a UV detector. The test compound is added to the reaction mixture to a final concentration of ≤2 μM. The concentrated protein mixture was diluted with buffer to a final volume of 0.5 ml, pre-incubated for 10 min at 37° C., followed by the addition of the substrate. Reactions are initiated by adding NADPH (nicotinamide adenine dinucleotide phosphate) to a final concentration of 0.25 mM with a regenerating system (glucose-6-phosphate and glucose-6-phosphate dehydrogenase) in 25 mM potassium phosphate buffer, pH 7.4, containing 0.1 mM DTT (dithiothreitol), 0.1% Tween-20.4 mM MgCl2 and incubated at 37° C. After 30 minutes of incubation, the reaction is stopped by adding 5 ml of dichloromethane. The organic phase is isolated by centrifugation, evaporation, dissolution in ethanol and transferred to a vial for HPLC studies. A C18 Luna 100 Å 250×4, 6 mm column was used on an Agilent Technologies 1200 series instrument (USA) with ethanol as the mobile phase.
Activity (a) is calculated as the amount of product in nmol per minute per 1 nmol of CYP.
where k is the correction factor (k=1 is used as the molar extinction coefficients of steroid substrates and products similar at a detection wavelength of 254 nm), As is the peak area of the substrate, cs is the concentration of the substrate, Ap is the peak area of the product, ce is the concentration of CYP (cytochrome P450), t is the reaction time.
The level of inhibition of CYP11 B2 activity is expressed as a percentage, where 0% is defined as no inhibition in reactions without test compound and 100% is absolute inhibition by test compound.
For `Cl.O=S(=O)(c1cc(F)c(N2CCNCC2)c(F)c1)n1ccc2c(-c3ccccn3)cncc21` [Compound 3_27, 1-((3,5-difluoro-4-(piperazin-1-yl)phenyl)sulfonyl)-4-(pyridin-2-yl)-1H-pyrrolo[2,3-c]pyridine], the “Level of CYP11B2 activity inhibition” value is recorded as “++ (inhibition of CYP11B2 activity in the range of 20-100% (++))”.

The same assay, now with this note: compounds 2_xx, 3_xx, 4_01; test compound final concentration ≤2 μM; corticosterone substrate; 30 minutes at 37° C.; read-out: Level of CYP11B2 activity inhibition.
In the case of `O=S(=O)(c1cc(F)c(N2CCCNCC2)c(F)c1)n1ccc2c(-c3ccccn3)cncc21` [Compound 3_14, 1-((4-(1,4-diazepan-1-yl)-3,5-difluorophenyl)sulfonyl)-4-(pyridin-2-yl)-1H-pyrrolo[2,3-c]pyridine], the inhibition at 2 µM fell in the range of 35 to 100%.

Take `NC1CCN(c2c(F)cc(S(=O)(=O)n3ccc4c(-c5ccccn5)cncc43)cc2F)CC1` [Compound 3_15, 1-(2,6-difluoro-4-((4-(pyridin-2-yl)-1H-pyrrolo[2,3-c]pyridin-1-yl)sulfonyl)phenyl)piperidin-4-amine]: the inhibition at 2 µM lay within 35 to 100%.

`CN1CC2(C1)CN(c1c(F)cc(S(=O)(=O)n3ccc4c(-c5ccccn5)cncc43)cc1F)C2` [Compound 3_16, 1-((3,5-difluoro-4-(6-methyl-2,6-diazaspiro[3.3]heptan-2-yl)phenyl)sulfonyl)-4-(pyridin-2-yl)-1H-pyrrolo[2,3-c]pyridine]: the inhibition at 2 µM fell in the range of 35 to 100%.

Consider `CN1CC2CC1CN2c1c(F)cc(S(=O)(=O)n2ccc3c(-c4ccccn4)cncc32)cc1F` (stereo not shown) [Compound 3_17, 1-((3,5-difluoro-4-(5-methyl-2,5-diazabicyclo[2.2.1]heptan-2-yl)phenyl)sulfonyl)-4-(pyridin-2-yl)-1H-pyrrolo[2,3-c]pyridine], for which the inhibition at 2 µM lay within 35 to 100%.

Consider `CN1CC2CC(C1)N2c1c(F)cc(S(=O)(=O)n2ccc3c(-c4ccccn4)cncc32)cc1F` [Compound 3_18, 6-(2,6-difluoro-4-((4-(pyridin-2-yl)-1H-pyrrolo[2,3-c]pyridin-1-yl)sulfonyl)phenyl)-3-methyl-3,6-diazabicyclo[3.1.1]heptane], for which the inhibition at 2 µM fell in the range of 35 to 100%.

Take `CN1CC2CCC(C1)N2c1c(F)cc(S(=O)(=O)n2ccc3c(-c4ccccn4)cncc32)cc1F` [Compound 3_19, 1-((3,5-difluoro-4-(3-methyl-3,8-diazabicyclo[3.2.1]octan-8-yl)phenyl)sulfonyl)-4-(pyridin-2-yl)-1H-pyrrolo[2,3-c]pyridine]: the inhibition at 2 µM fell in the range of 35 to 100%.

Turning to `O=S(=O)(c1cc(F)c(N2CCN3CCC2C3)c(F)c1)n1ccc2c(-c3ccccn3)cncc21` (stereo not shown) [Compound 3_20, 1-((4-(1,4-diazabicyclo[3.2.1]octan-4-yl)-3,5-difluorophenyl)sulfonyl)-4-(pyridin-2-yl)-1H-pyrrolo[2,3-c]pyridine], the inhibition at 2 µM was in the range of 35 to 100%.

For the compound `O=S(=O)(c1cc(F)c(N2CC3(CNC3)C2)c(F)c1)n1ccc2c(-c3ccccn3)cncc21` [Compound 3_21, 1-((3,5-difluoro-4-(2,6-diazaspiro[3.3]heptan-2-yl)phenyl)sulfonyl)-4-(pyridin-2-yl)-1H-pyrrolo[2,3-c]pyridine], the inhibition at 2 µM lay within 20 to 100%.

On to `CNc1cnc(-c2cncc3c2ccn3S(=O)(=O)c2cc(F)c(N3CC4CN(C)CC4C3)c(F)c2)cn1` (stereo not shown) [Compound 3_22, 5-(1-((3,5-difluoro-4-(5-methylhexahydropyrrolo[3,4-c]pyrrol-2(1H)-yl)phenyl)sulfonyl)-1H-pyrrolo[2,3-c]pyridin-4-yl)-N-methylpyrazin-2-amine], for which the inhibition at 2 µM is 35 to 100%.

`CN1CC2CN(c3c(F)cc(S(=O)(=O)n4ccc5c(-c6cnc(C#N)cn6)cncc54)cc3F)CC2C1` (stereo not shown) [Compound 3_23, 5-(1-((3,5-difluoro-4-(5-methylhexahydropyrrolo[3,4-c]pyrrol-2(1H)-yl)phenyl)sulfonyl)-1H-pyrrolo[2,3-c]pyridin-4-yl)pyrazine-2-carbonitrile]: the inhibition at 2 µM was 35 to 100%.

For the compound `CN1CC2CN(c3c(F)cc(S(=O)(=O)n4ccc5c(-c6ccc(C#N)nc6)cncc54)cc3F)CC2C1` (stereo not shown) [Compound 3_24, 5-(1-((3,5-difluoro-4-(5-methylhexahydropyrrolo[3,4-c]pyrrol-2(1H)-yl)phenyl)sulfonyl)-1H-pyrrolo[2,3-c]pyridin-4-yl)picolinonitrile], the inhibition at 2 µM lay within 35 to 100%.

With `O=S(=O)(c1cc(F)c(N2CC3CC2CN3)c(F)c1)n1ccc2c(-c3ccccn3)cncc21` (stereo not shown) [Compound 3_25, 1-((4-(2,5-diazabicyclo[2.2.1]heptan-2-yl)-3,5-difluorophenyl)sulfonyl)-4-(pyridin-2-yl)-1H-pyrrolo[2,3-c]pyridine], the inhibition at 2 µM lay within 35 to 100%.

As for `O=S(=O)(c1cc(F)c(N2C3CCC2CNC3)c(F)c1)n1ccc2c(-c3ccccn3)cncc21` [Compound 3_26, 1-((4-(3,8-diazabicyclo[3.2.1]octan-8-yl)-3,5-difluorophenyl)sulfonyl)-4-(pyridin-2-yl)-1H-pyrrolo[2,3-c]pyridine], the inhibition at 2 µM lay within 35 to 100%.

Regarding `N#Cc1ccc(-c2cncc3c2ccn3S(=O)(=O)c2cc(F)c(N3CC4CNCC4C3)c(F)c2)cn1` (stereo not shown) [Compound 3_28, 5-(1-((3,5-difluoro-4-(hexahydropyrrolo[3,4-c]pyrrol-2(1H)-yl)phenyl)sulfonyl)-1H-pyrrolo[2,3-c]pyridin-4-yl)picolinonitrile], the inhibition at 2 µM fell in the range of 35 to 100%.

In the case of `CN1CCN(c2c(F)cc(S(=O)(=O)n3ccc4c(-c5ccccn5)cncc43)cc2F)CC1` [Compound 4_01, 1-((3,5-difluoro-4-(4-methylpiperazin-1-yl)phenyl)sulfonyl)-4-(pyridin-2-yl)-1H-pyrrolo[2,3-c]pyridine], the inhibition at 2 µM lay within 35 to 100%.
